target: T1, Sentrin-specific protease 1 (Homo sapiens, UniProt Q9P0U3)
T1 sequence (Q9P0U3 whole entry): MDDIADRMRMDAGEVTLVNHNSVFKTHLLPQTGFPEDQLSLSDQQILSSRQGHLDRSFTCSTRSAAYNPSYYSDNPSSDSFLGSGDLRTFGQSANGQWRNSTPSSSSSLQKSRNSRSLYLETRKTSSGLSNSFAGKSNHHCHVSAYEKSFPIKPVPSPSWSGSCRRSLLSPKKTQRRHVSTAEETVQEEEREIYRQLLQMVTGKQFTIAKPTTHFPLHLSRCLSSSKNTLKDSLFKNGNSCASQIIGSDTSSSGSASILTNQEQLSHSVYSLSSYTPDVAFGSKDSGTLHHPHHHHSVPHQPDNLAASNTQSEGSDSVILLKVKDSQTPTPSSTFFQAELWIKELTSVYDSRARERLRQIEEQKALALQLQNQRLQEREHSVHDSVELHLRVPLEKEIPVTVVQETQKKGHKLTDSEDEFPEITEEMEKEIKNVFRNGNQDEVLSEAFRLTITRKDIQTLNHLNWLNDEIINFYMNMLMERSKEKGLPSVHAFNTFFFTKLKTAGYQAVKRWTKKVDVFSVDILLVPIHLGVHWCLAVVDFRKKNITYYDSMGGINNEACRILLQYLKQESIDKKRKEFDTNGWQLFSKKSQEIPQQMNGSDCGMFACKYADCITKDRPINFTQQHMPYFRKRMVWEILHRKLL

IC50 [µM] | SMILES
18.2 | CCOC1=CC(=Cc2sc(=O)[nH]c2N)C=CC1=O
7.2 | O=[N+]([O-])c1ccc(C/N=N/c2ccccc2)cc1
4.36 | COc1ccc(-n2c(O)c3c(c2O)C(C(=O)c2ccc(Cl)cc2)N2CCCC32)cc1 (stereo not drawn)
12.5 | O=C1CC(=Nc2ccc(Cl)cc2)C(=O)N1c1ccc(Cl)cc1 [1-(4-chlorophenyl)-3-[(4-chlorophenyl)amino]pyrrole-2,5-dione]
42.4 | CC1(C)CC(=O)C2Sc3ccccc3N=C2C1 (stereo not drawn) [2,2-Dimethyl-2,3-dihydro-1H,10H-phenothiazin-4-one]
8.71 | O=C(Cc1cccc2ccccc12)NC(NC(=S)Nc1ccccc1Cl)C(Cl)(Cl)Cl (stereo not drawn) [2-(1-naphthyl)-N-[2,2,2-trichloro-1-({[(2-chlorophenyl)amino]carbonothioyl}amino)ethyl]acetamide]
30.5 | N#CC1C(=N)Oc2cc(Nc3ccccc3)ccc2C1c1ccncc1 (stereo not drawn) [2-amino-7-anilino-4-pyridin-4-yl-4H-1-benzopyran-3-carbonitrile]
11.3 | CCN1C(=O)c2cccc3c(NC(=O)c4cccc(-n5c(O)ccc5O)c4)ccc1c23 [3-(2,5-dioxopyrrolidin-1-yl)-N-(1-ethyl-2-oxobenzo[cd]indol-6-yl)benzamide]
9.69 | COc1ccc(C=Nn2c(O)csc2=S)cc1Br [3-[(E)-(3-bromo-4-methoxyphenyl)methylideneamino]-2-sulfanylidene-4-thiazolidinone]
8.55 | O=C1CC(=O)c2cccc3cccc1c23 [3-hydroxy-1H-phenalen-1-one]
7.9 | Oc1c2c(c(O)n1-c1ccccn1)C(c1ccccc1)C=CC2c1ccccc1 (stereo not drawn) [4,7-diphenyl-2-pyridin-2-yl-3a,4,7,7a-tetrahydroisoindole-1,3-dione]
15.4 | COc1nccnc1NS(=O)(=O)c1ccc(NC(=S)NC(=O)c2ccc(F)cc2)cc1 [4-[3-(4-Fluoro-benzoyl)-thioureido]-N-(3-methoxy-pyrazin-2-yl)-benzenesulfonamide]
8.97 | O=C(O)c1ccc(N=NCc2cccc3nccnc23)cc1 [4-[(2E)-2-(5-quinoxalinylmethylidene)hydrazinyl]benzoic acid]
4.65 | CC(=O)Oc1ccc(-n2c(O)c3c(c2O)C(C(=O)c2ccc(Cl)cc2)N2CCCC32)cc1 (stereo not drawn) [Acetic acid 4-[4-(4-chloro-benzoyl)-1,3-dioxo-octahydro-pyrrolo[3,4-a]pyrrolizin-2-yl]-phenyl ester]
17.1 | O=C1CCCC2=Nc3cc(Cl)ccc3SC12 (stereo not drawn) [MLS000333002]
13.2 | CN(C)c1ccc(C=NNC(=O)C(=O)CC2=NC3(CCCC3)Cc3ccccc32)cc1 [MLS000589038]
11 | COc1ccc(-n2c(O)c3c(c2O)C(C(=O)c2ccccc2)N2CCCC32)cc1 (stereo not drawn) [MLS000762485]
7.78 | O=C(c1ccccc1)[C@@H]1c2c(c(O)n(-c3ccc(F)cc3)c2O)C2CCCN21 (stereo partly drawn) [MLS000769629]
7.67 | CCOc1cc(C=c2[nH]c3n(c2=O)CCCCC=3)ccc1O [MLS000774439]
10.6 | CC1=C(C#N)C(=O)NC(=O)C1=NNc1ccc(Br)cc1C(=O)O [MLS001213177]
2.89 | O=NC1c2cc([N+](=O)[O-])ccc2-c2cc(Cl)c(NC(=O)C(F)(F)F)cc21 (stereo not drawn) [MLS002707326]
3.12 | Nc1ccc2c(c1)C(N=O)c1cc([N+](=O)[O-])ccc1-2 (stereo not drawn) [N-(2-azanyl-7-nitro-fluoren-9-ylidene)hydroxylamine]

SMILES | IC50 [µM]
COc1ccc(P2(=O)Nc3ccccc3N2)cc1 [2-(4-methoxyphenyl)-1,3-dihydro-1,3,2-benzodiazaphosphole 2-oxide] | > 80
